Publication PMC10005301, “Prediction of the n-Octanol/Water Partition Coefficients of Basic Compounds Using Multi-Parameter QSRR Models Based on IS-RPLC Retention Behavior in a Wide pH Range” (Molecules, 2023)
Where two headings read alike, the source gives them in different places.

Tests used:
[1] = IS-RPLC retention on silica-based C18 column, logkw by linear solvent strength model; type: physicochemical
Description: (§1) The retention behavior of the 42 basic compounds (Table 1) were investigated at different ratios of methanol (φ = 0.7–0.1, the interval was 0.1 or 0.05 based on the retention of the investigated solutes). The logk values were plotted versus φ for each solute at pH 7.0, pH 8.0, pH 9.0, and pH 10.0. […] The logD values of the model compounds and verification compounds calculated using Equation (S3) based on the logP and pH values are also listed in Table 1.
The column temperature was set at 30 °C. Methanol and 20 mmol/L ammonium phosphate buffer (pH = 7.0, 8.0, 9.0, 10.0) was used as the mobile phase to perform isocratic elution. The injection volume was 10 µL and the detection wavelength for each eluted compound was set at its optimum absorption wavelength.
(§2) At each pH, the retention time (tR) of every analyte was determined for at least four different volume fractions (φ) of methanol. All the tR values of the solutes were obtained by averaging the results of at least three independent injections. The tR value was corrected using dual-point retention time correction (DP-RTC). For a detailed description of the process, refer to our previous work. For the different hydrophobicities of the studied compounds, benzene, toluene, and benzyl alcohol were used as anchor compounds in the DP-RTC method. The dead time t0 was determined using uracil. For each solute, the logarithm of k was plotted against φ, and logkw was obtained using the Equation (S1). The logD values of the model compounds were calculated using Equation (S3), and the logD–logkw models were established with Equation (S4). The statistical analysis for the regression model was accomplished using Origin 9.4. […]
(§3) Where, k is the capacity factor, φ is the volume fraction of organic modifier in the mobile phase, and S is the constant obtained by linear regression in the equations. […]
The Eqs. (S1) and (S2) are the basis for the determination of logP by revered- phase liquid chromatography (RPLC) method. For dissociative solutes, it has been confirmed by many studies that the logD calibrated from logP has a better linear correlation with logkw than logP. […]

[2] = logD determined by multi-parameter QSRR models from IS-RPLC logkw
Description: Multi-parameter QSRR models including logD, logkw, ne, A, and B were established using the multiple linear regression (MLR) method. In the process of linear fitting, ne, A, B, and their different combinations were introduced to optimize the models.
The logD values reported in the literature for these four compounds were calculated using Equation (S3) with corresponding pKa, logP, and pH values.
At each pH, the retention time (tR) of every analyte was determined for at least four different volume fractions (φ) of methanol. All the tR values of the solutes were obtained by averaging the results of at least three independent injections. The tR value was corrected using dual-point retention time correction (DP-RTC). For a detailed description of the process, refer to our previous work. For the different hydrophobicities of the studied compounds, benzene, toluene, and benzyl alcohol were used as anchor compounds in the DP-RTC method. The dead time t0 was determined using uracil. For each solute, the logarithm of k was plotted against φ, and logkw was obtained using the Equation (S1). The logD values of the model compounds were calculated using Equation (S3), and the logD–logkw models were established with Equation (S4). The statistical analysis for the regression model was accomplished using Origin 9.4.

[3] = parameters: method as in UFZ-LSER database; conditions: hydrogen bonding parameter B; ref UFZ-LSER database; cited from earlier work
[4] = Description: as §1, §2, §3
and logkw, which is usually called Collander equation [25 ]. lo g lo g wPm k n= + (S2)
Where, m and n are constants obtained by linear regression.
The Eqs. (S1) and (S2) are the basis for the determination of logP by revered- phase liquid chromatography (RPLC) method. For dissociative solutes, it has been confirmed by many studies that the logD calibrated from logP has a better linear correlation with logkw than logP.
For basic compounds, the logD value can be calibrated from Eq. (S3), and the Collander equation can be rewritten into Eq. (S4). log log( )D − −+ −+= + ++P […]
lo g ' lo g 'Dm k n= +w (S4)
Where, pKa1, pKa2 , … p Kan are the dissociation constants of basic compounds of corresponding acids in the mobile phase, pH is the pH value of mobile phase, m′ and n′ are fitting parameters. Han et al. pointed out that although mobile phase pH and pKa of solutes will change along with the varied organic modifier fraction, the difference between a couple of relevant pH and pKa is a constant. Therefore, the used pH and pKa in this paper were both the values obtained at 100% aqueous phase. […]

[5] = pH 7.0, methanol/20 mmol/L ammonium phosphate buffer, Welch Xtimate C18, 30 °C, 100% aqueous extrapolation
[6] = pH 8.0, methanol/20 mmol/L ammonium phosphate buffer, Welch Xtimate C18, 30 °C, 100% aqueous extrapolation
[7] = pH 9.0, methanol/20 mmol/L ammonium phosphate buffer, Welch Xtimate C18, 30 °C, 100% aqueous extrapolation
[8] = pH 10.0, methanol/20 mmol/L ammonium phosphate buffer, Welch Xtimate C18, 30 °C, 100% aqueous extrapolation
[9] = IS-RPLC retention (logkw), pH 7
[10] = IS-RPLC retention (logkw), pH 8
[11] = IS-RPLC retention (logkw), pH 9
[12] = IS-RPLC retention (logkw), pH 10
[13] = pH 7.0, calculated with literature logP, pKa and pH, Equation (S3)
[14] = pH 8.0, calculated with literature logP, pKa and pH, Equation (S3)
[15] = pH 9.0, calculated with literature logP, pKa and pH, Equation (S3)
[16] = pH 10.0, calculated with literature logP, pKa and pH, Equation (S3)

| logkw-pH 7.0 [1, 5] | logkw-pH 8.0 [1, 6] | logkw-pH 9.0 [1, 7] | logkw-pH 10.0 [1, 8] | chromatographic logD [2, 9] | chromatographic logD [2, 10] | chromatographic logD [2, 11] | chromatographic logD [2, 12] | Compound | B [3] | chromatographic logD ([2]; pH 7) | chromatographic logD ([2]; pH 8) | chromatographic logD ([2]; pH 9) | chromatographic logD ([2]; pH 10) | further results |
| --- | --- | --- | --- | --- | --- | --- | --- | --- | --- | --- | --- | --- | --- | --- |
| 1.36 | 1.36 | 1.38 | 1.43 | 1.28 | 1.22 | 0.94 | 0.86 | COc1nc(C)nc(N)n1 [2-Amino-4-methyl-6-methoxy-s-triazine] | 1.07 |  |  |  |  |  |
| 1.13 | 1.12 | 1.14 | 1.18 |  |  |  |  | Nc1ccc(F)cc1 [4-Fluoroaniline] | 1.76 |  |  |  |  | logDpH 7.0 [4, 13]: 1.15; logDpH 8.0 [4, 14]: 1.15; logDpH 9.0 [4, 15]: 1.15; logDpH 10.0 [4, 16]: 1.15 |
| −0.53 | −0.39 | −0.34 | −0.16 |  |  |  |  | c1c[nH]cn1 [Imidazole] | 0.71 |  |  |  |  |  |
| 0.97 | 1.61 | 2.13 | 2.44 |  |  |  |  | CN(C)Cc1ccccc1 [N, N-Dimethylbenzylamine] | 0.67 |  |  |  |  | logDpH 7.0 [4, 13]: 0.17; logDpH 8.0 [4, 14]: 1.12; logDpH 9.0 [4, 15]: 1.77; logDpH 10.0 [4, 16]: 1.95 |
| 1.18 | 1.18 | 1.20 | 1.30 | 2.29 | 2.05 | 1.2 | 1.87 | O=C(O)c1cc(O)nc(O)c1 [Citrazinic acid] | 1.23 |  |  |  |  |  |
| 1.36 | 1.36 | 1.38 | 1.43 | 1.27 | 1.22 | 0.95 | 0.88 | Nc1ncncn1 [2-Amino-1,3,5-triazine] | 1.00 |  |  |  |  |  |
| 0.17 | 0.07 | −0.16 | 0.21 |  |  |  |  | Nc1cccc(N)c1 [1,3-diaminobenzene] | 1.28 | 0.03 | -0.02 | -0.41 | -0.15 |  |
| 2.22 | 2.28 | 2.29 | 2.28 | 2.14 | 2.1 | 2.13 | 2.08 | Nc1ccc(I)cc1 [4-Iodoaniline] | 1.53 |  |  |  |  |  |
|  |  |  |  |  |  |  |  | Nc1ccccc1N [1,2-diaminobenzene] | 1.26 | 0.38 | 0.38 | 0.07 | 0.28 | logkw-pH 7.0 ([1]; pH 7): 0.50; logkw-pH 8.0 ([1]; pH 8): 0.49; logkw-pH 9.0 ([1]; pH 9): 0.29; logkw-pH 10.0 ([1]; pH 10): 0.60 |
| −0.39 | −0.38 | −0.27 | −0.15 | -0.52 | -0.46 | -0.84 | -0.89 | O=C(n1ccnc1)n1ccnc1 [1,1’-Carbonyldiimidazole] | 1.47 |  |  |  |  |  |
|  |  |  |  |  |  |  |  | Nc1ccc([N+](=O)[O-])cc1Cl [2-Chloro-4-nitroaniline] | 1.41 | 1.99 | 1.96 | 1.93 | 1.92 | logkw-pH 7.0 ([1]; pH 7): 2.07; logkw-pH 8.0 ([1]; pH 8): 2.13; logkw-pH 9.0 ([1]; pH 9): 2.14; logkw-pH 10.0 ([1]; pH 10): 2.18 |
| 1.78 | 1.83 | 1.83 | 1.47 | 1.7 | 1.67 | 1.2 | 0.69 | Nc1cccc(S(=O)(=O)c2cccc(N)c2)c1 [3,3’-Sulfonyldianiline] | 1.82 |  |  |  |  |  |
|  |  |  |  |  |  |  |  | c1ccncc1 [Pyridine] |  |  |  |  |  | logkw-pH 7.0 ([1]; pH 7): 0.70; logkw-pH 8.0 ([1]; pH 8): 0.92; logkw-pH 9.0 ([1]; pH 9): 1.01; logkw-pH 10.0 ([1]; pH 10): 1.05 |
| 0.80 | 0.66 | 0.82 | 0.88 | 0.7 | 0.54 | 0.17 | 0.04 | CCC(C(N)=O)N1CCCC1=O (stereo not drawn) [Etiracetam] | 1.03 |  |  |  |  |  |

| Compound | logkw-pH 7.0 [1, 5] | logkw-pH 8.0 [1, 6] | logkw-pH 9.0 [1, 7] | logkw-pH 10.0 [1, 8] | chromatographic logD [2, 9] | chromatographic logD [2, 10] | chromatographic logD [2, 11] | chromatographic logD [2, 12] | B [3] | chromatographic logD ([2]; pH 7) | chromatographic logD ([2]; pH 8) | chromatographic logD ([2]; pH 9) | chromatographic logD ([2]; pH 10) | further results |
| --- | --- | --- | --- | --- | --- | --- | --- | --- | --- | --- | --- | --- | --- | --- |
| Nc1ccc([N+](=O)[O-])cc1[N+](=O)[O-] [2,4-Dinitroaniline] | 1.80 | 1.86 | 1.78 | 1.92 |  |  |  |  | 1.44 | 1.71 | 1.69 | 1.58 | 1.64 |  |
| Cc1cc([N+](=O)[O-])ccc1N [2-Methyl-4-nitroaniline] | 1.76 | 1.79 | 1.46 | 1.84 |  |  |  |  | 1.22 | 1.67 | 1.63 | 1.31 | 1.6 |  |
| Cc1ccccn1 [2-Picoline] | 1.31 | 1.32 | 1.34 | 1.36 |  |  |  |  | 0.60 |  |  |  |  | logDpH 7.0 ([4]; pH 7): 1.05; logDpH 8.0 ([4]; pH 8): 1.09; logDpH 9.0 ([4]; pH 9): 1.09; logDpH 10.0 ([4]; pH 10): 1.09 |
| Cc1c[nH]cn1 [4-Methylimidazole] |  |  |  |  | -0.54 | 0.06 | 0.08 | 0.07 | 0.64 |  |  |  |  | logkw-pH 7.0 ([1]; pH 7): −0.08; logkw-pH 8.0 ([1]; pH 8): 0.19; logkw-pH 9.0 ([1]; pH 9): 0.32; logkw-pH 10.0 ([1]; pH 10): 0.39 |
| Nc1c(Cl)cc([N+](=O)[O-])cc1[N+](=O)[O-] [2-Chloro-4,6-dinitroaniline] | 2.19 | 2.25 | 2.26 | 2.30 |  |  |  |  | 1.56 | 2.11 | 2.07 | 1.99 | 1.97 |  |
| Nc1ccccc1 [Aniline] | 0.96 | 0.95 | 0.97 | 1.02 |  |  |  |  | 1.86 |  |  |  |  | logDpH 7.0 ([4]; pH 7): 0.90; logDpH 8.0 ([4]; pH 8): 0.90; logDpH 9.0 [4, 15]: 0.90; logDpH 10.0 ([4]; pH 10): 0.90 |
